Key:
Conditions in all cases: 72 h
[1] = tested on: Calu-3; assay: relative viability EC50 (midpoint between 100% and the lowest measured viability); higher = less toxic
[2] = tested on: Vero E6; assay: as above
[3] = tested on: U2OS; assay: as above
[4] = tested on: HepG2; assay: as above
[5] = tested on: Caco-2; assay: as above
[6] = tested on: Calu-3; assay: drug sensitivity score (DSS) for viability; higher = more toxic; extreme values may be limits of the assay
[7] = tested on: Vero E6; assay: as above
[8] = tested on: U2OS; assay: as above
[9] = tested on: HepG2; assay: as above
[10] = tested on: Caco-2; assay: as above
[11] = tested on: Calu-3; assay: cell viability relative to DMSO; higher = less toxic
[12] = tested on: Vero E6; assay: as above
[13] = tested on: U2OS; assay: as above
[14] = tested on: HepG2; assay: as above
[15] = tested on: Caco-2; assay: as above

| Compound | relative viability EC50 [1] [µM] | relative viability EC50 [2] [µM] | relative viability EC50 [3] [µM] | relative viability EC50 [4] [µM] | relative viability EC50 [5] [µM] | drug sensitivity score [6] | drug sensitivity score [7] | drug sensitivity score [8] | drug sensitivity score [9] | drug sensitivity score [10] | cell viability ([11]; 1 nM) [%] | cell viability ([11]; 10 nM) [%] | cell viability ([11]; 100 nM) [%] | cell viability ([11]; 1000 nM) [%] | cell viability ([11]; 10000 nM) [%] | cell viability ([12]; 1 nM) [%] | cell viability ([12]; 10 nM) [%] | cell viability ([12]; 100 nM) [%] | cell viability ([12]; 1000 nM) [%] | cell viability ([12]; 10000 nM) [%] | cell viability ([13]; 1 nM) [%] | cell viability ([13]; 10 nM) [%] | cell viability ([13]; 100 nM) [%] | cell viability ([13]; 1000 nM) [%] | cell viability ([13]; 10000 nM) [%] | cell viability ([14]; 1 nM) [%] | cell viability ([14]; 10 nM) [%] | cell viability ([14]; 100 nM) [%] | cell viability ([14]; 1000 nM) [%] | cell viability ([14]; 10000 nM) [%] | cell viability ([15]; 1 nM) [%] | cell viability ([15]; 10 nM) [%] | cell viability ([15]; 100 nM) [%] | cell viability ([15]; 1000 nM) [%] | cell viability ([15]; 10000 nM) [%] |
| --- | --- | --- | --- | --- | --- | --- | --- | --- | --- | --- | --- | --- | --- | --- | --- | --- | --- | --- | --- | --- | --- | --- | --- | --- | --- | --- | --- | --- | --- | --- | --- | --- | --- | --- | --- |
| N#Cc1cccc(C(=O)Nc2cc(-c3ccccc3)nn2-c2ccccc2)c1 [CDPPB] | > 10 | > 10 | > 10 | > 10 | > 10 | 0 | 0 | 0 | 0 | 0 | 101 | 95 | 101 | 97.2 | 100 | 98.5 | 96.2 | 98.6 | 99.2 | 103 | 92.8 | 97 | 97.1 | 93.9 | 91.6 | 106 | 103 | 97.8 | 107 | 104 | 93.3 | 100 | 108 | 95.4 | 102 |
| Nc1ncnc2c1ncn2[C@@H]1O[C@H](COP(=O)(O)OP(=O)(O)OP(=O)(O)O)[C@@H](O)[C@H]1O [ADENOSINE TRIPHOSPHATE DISODIUM] | > 10 | > 10 | > 10 | > 10 | > 10 | 0 | 0 | 0 | 0 | 0 | 97 | 96.6 | 104 | 95.3 | 110 | 91.9 | 90.5 | 90.6 | 90.2 | 106 | 93.8 | 97.9 | 93.3 | 101 | 110 | 101 | 100 | 106 | 93.2 | 98.4 | 95.3 | 103 | 99.5 | 97.1 | 105 |
| CCOC(=O)[C@@H](N)Cc1ccc(-c2cc(O[C@H](c3ccc(Cl)cc3-n3ccc(C)n3)C(F)(F)F)nc(N)n2)cc1 [telotristat-ethyl] | > 10 | > 10 | > 10 | > 10 | > 10 | 0 | 0 | 0 | 0 | 0 | 96.6 | 99.7 | 106 | 91.1 | 95.4 | 96.6 | 91.8 | 95.2 | 95.5 | 107 | 96.6 | 93.5 | 93.6 | 100 | 96.4 | 97.7 | 106 | 94.5 | 102 | 113 | 97.3 | 89.6 | 104 | 99.4 | 88.6 |
| Nc1nc(=O)n([C@@H]2O[C@H](CO)[C@@H](O)[C@@H]2F)cc1I [fiacitabine] | > 10 | > 10 | > 10 | > 10 | > 10 | 0 | 0 | 0 | 0.2 | 0.2 | 93.1 | 102 | 102 | 109 | 96 | 98.9 | 97.6 | 98.9 | 100 | 96.7 | 99.8 | 104 | 93.6 | 98.6 | 100 | 104 | 91.4 | 96.1 | 106 | 83.6 | 93.8 | 99.5 | 90.1 | 84.3 | 93.2 |
| CC(C)OC(=O)[C@H](C)N[P@@](=O)(OC[C@H]1O[C@@H](n2ccc(=O)[nH]c2=O)[C@](C)(F)[C@@H]1O)Oc1ccccc1 [PSI-7976] | > 10 | > 10 | > 10 | > 10 | > 10 | 0 | 0 | 0 | 0 | 0 | 104 | 85.4 | 96.7 | 93.3 | 94.2 | 95.2 | 101 | 91.4 | 99 | 108 | 98.2 | 93.6 | 101 | 99 | 96.8 | 89.5 | 103 | 92.6 | 109 | 113 | 105 | 88.7 | 103 | 90.2 | 101 |
| COc1cc(CN2CCN(c3ccc(F)cc3)CC2)cc(OC)c1OC [V-51] | > 10 | > 10 | > 10 | > 10 | > 10 | 0 | 0 | 0 | 0 | 0 | 81.8 | 95.7 | 106 | 105 | 105 | 95.9 | 96.5 | 100 | 98.3 | 106 | 100 | 103 | 94.8 | 98.6 | 102 | 100 | 98.1 | 93.2 | 100 | 98.8 | 94.8 | 94.4 | 93.6 | 83.5 | 97.8 |
| CCCCNC(=O)NS(=O)(=O)c1ccc(C)cc1 [tolbutamide] | > 10 | > 10 | > 10 | > 10 | > 10 | 0 | 0 | 0 | 0 | 0 | 95.1 | 90.2 | 95.7 | 107 | 94.3 | 104 | 103 | 105 | 102 | 97.4 | 101 | 98.5 | 99.2 | 96.7 | 98.6 | 87.5 | 98 | 103 | 94.3 | 99.9 | 101 | 96.7 | 96.2 | 96.3 | 96.3 |
